Assay results from patent US11230556B2 (Merck Sharp & Dohme Corp., priority 2016, dated 2022).

What follows are compounds tested against T1, human M4 muscarinic acetylcholine receptor (Homo sapiens, UniProt P08173) (assay: human FLIPR-based M4 PAM assay (CHO-K1 cells with human M4 receptor and Gαqi5, calcium dye fluorescence, acetylcholine at 20% of maximum response)). Conditions: inflection point (IP) of 4 parameter logistic dose response curve, human M4 receptor + Gαqi5, FLIPR Tetra.
T1 construct: expressed in transfected cells; host or cells: CHO-K1
T1 sequence (P08173 1-479): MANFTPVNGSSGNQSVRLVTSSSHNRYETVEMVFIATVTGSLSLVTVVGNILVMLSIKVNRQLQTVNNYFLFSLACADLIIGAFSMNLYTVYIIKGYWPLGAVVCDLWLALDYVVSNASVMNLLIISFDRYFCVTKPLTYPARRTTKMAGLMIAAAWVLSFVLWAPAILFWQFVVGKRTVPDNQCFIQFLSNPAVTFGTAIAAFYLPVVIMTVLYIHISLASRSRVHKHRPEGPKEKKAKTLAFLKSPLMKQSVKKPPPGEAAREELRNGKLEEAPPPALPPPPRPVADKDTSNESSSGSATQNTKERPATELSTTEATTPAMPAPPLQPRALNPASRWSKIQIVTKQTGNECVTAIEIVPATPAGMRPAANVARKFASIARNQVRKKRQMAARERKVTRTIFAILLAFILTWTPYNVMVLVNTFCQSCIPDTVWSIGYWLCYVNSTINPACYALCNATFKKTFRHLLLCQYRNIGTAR
Type: cell-based
Protocol: In a typical experiment the M4 muscarinic acetylcholine receptor modulating activity of the compounds of the present invention was determined in accordance with the following experimental method. CHO-K1 cells stably transfected with human M4 receptor and chimeric G-protein Gαqi5 (Coward P, et al., Analytical Biochemistry, 270:242-248 (1999)) are thawed from liquid N2 storage, resuspended in growth medium, plated in black, clear bottom 384 well plates, and incubated 16-20 hours at 37° C., 5% CO2. On the day of assay, growth medium is removed, the cells are washed 2 times with wash buffer, and cells are incubated in dye loading buffer at 37° C., 5% CO2 for ˜1 hour. Following dye loading the cell plates are placed in a FLIPR Tetra instrument and while monitoring dye fluorescence (excitation […]), 10 uL of test substance at increasing concentrations is added, and fluorescence values are recorded for 4 min. Next, 10 uL of acetylcholine is added (final concentration calculated so as to achieve 20% of the maximum acetycholine response), and the fluorescence reading is continued for 3.5 min. In some cases, a third addition of acetylcholine (final concentration calculated to achieve 70% of the maximal acetylcholine response) is performed. The resulting dose response curves are fit to a 4 parameter logistic equation and the final result is determined as the inflection point (IP) of the curve
CHO-K1 cells stably transfected with human M4 receptor and chimeric G-protein Gαqi5 are thawed from liquid N2 storage, resuspended in growth medium, plated in black, clear bottom 384 well plates, and incubated 16-20 hours at 37° C., 5% CO2.
On the day of assay, growth medium is removed, the cells are washed 2 times with wash buffer, and cells are incubated in dye loading buffer at 37° C., 5% CO2 for ˜1 h. Following dye loading the cell plates are placed in a FLIPR Tetra instrument and while monitoring dye fluorescence ([…]), 10 uL of test substance at increasing concentrations is added, and fluorescence values are recorded for 4 min. Next, 10 uL of acetylcholine is added (final concentration calculated so as to achieve 20% of the maximum acetycholine response), and the fluorescence reading is continued for 3.5 min. In some cases, a third addition of acetylcholine (final concentration calculated to achieve 70% of the maximal acetylcholine response) is performed.

SMILES	EC50 [nM]
COc1ccc(OC2CCN(c3nc4c(cc3C)C(=O)OC4C)CC2)cn1 (racemic) [Example 29B, (R)-2-(4-((6-Methoxypyridin-3-yl)oxy)piperidin-1-yl)-3,7-dimethylfuro[3,4-b]pyridin-5(7H)-one and (S)-2-(4-((6-methoxypyridin-3-yl)oxy)piperidin-1-yl)-3,7-dimethylfuro[3,4-b]pyridin-5(7H)-one]	54
COc1ccc(OC2CCN(c3nc4c(cc3C)C(O)CC4)CC2)cn1 (single isomer, unassigned) [Example 71A]	3080
COc1ccc(OC2CCN(c3nc4c(cc3C)C(O)CC4)CC2)cn1 (single isomer, unassigned) [Example 71B]	1050
Cc1cc2c(nc1N1CCC(Oc3ccc4c(c3)COC4)CC1)C1COCCN1C2=O (single isomer, unassigned) [Example 81A]	29
Cc1cc2c(nc1N1CCC(Oc3ccc4c(c3)COC4)CC1)C1COCCN1C2=O (single isomer, unassigned) [Example 81B]	163
Cc1cc2c(nc1N1CCC(Oc3ccc4c(c3)COC4)CC1)C1CNCCN1C2=O (single isomer, unassigned) [Example 83A]	103
COc1ccc(OC2CCN(c3nc4c(cc3C)CNC4=O)CC2)cn1 [Example 1, (4-((6-Methoxypyridin-3-yl)oxy)piperidin-1-yl)-3-methyl-5H-pyrrolo[3,4-b]pyridin-7(6H)-one]	193
Cc1cn2c(=O)[nH]nc2nc1N1CCC(Oc2ccc3c(c2)COC3)CC1 [Example 2, 7-(4-((1,3-Dihydro-2-benzofuran-5-yl)oxy)piperidin-1-yl)-6-methyl-[1,2,4]triazolo[4,3-a]pyrimidin-3(2H)-one]	20
Cc1cn2c(=O)n(C)nc2nc1N1CCC(OCC2(C)CC2)CC1 [Example 3, 2,6-Dimethyl-7-(4-((1-methylcyclopropyl)methoxy)piperidin-1-yl)-[1,2,4]triazolo[4,3-a]pyrimidin-3(2H)-one]	79
COc1ccc(OC2CCN(c3nc4n[nH]c(=O)n4cc3C)CC2)cn1 [Example 4]	55
Cc1cn2c(=O)[nH]nc2nc1N1CC[C@@H](Oc2ccc3c(cnn3C)c2)[C@@H](F)C1 [Example 5, 7-((3S,4R)-3-fluoro-4-((1-methyl-1H-indazol-5-yl)oxy)piperidin-1-yl)-6-methyl-[1,2,4]triazolo[4,3-a]pyrimidin-3(2H)-one]	62
Cc1cn2c(=O)[nH]nc2nc1N1CCC(Oc2ccc3c(c2)C(=O)N(C2CC2)C3)CC1 [Example 6, 7-(4-((2-cyclopropyl-3-oxoisoindolin-5-yl)oxy)piperidin-l-yl)-6-methyl-[1,2,4]triazolo[4,3-a]pyrimidin-3(2H)-one]	168
Cc1cn2c(=O)[nH]nc2nc1N1CC[C@@H](Oc2ccc3c(cnn3C)c2)[C@H](F)C1 [Example 7, 7-((3R,4R)-3-fluoro-4-((1-methyl-1H-indazol-5-yl)oxy)piperidin-1-yl)-6-methyl-[1,2,4]triazolo[4,3-a]pyrimidin-3(2H)-one]	138
Cc1cn2c(=O)[nH]nc2nc1N1CCC(OCC2CCCC2)CC1 [Example 8, 7-(4-(cyclopentylmethoxy)piperidin-1-yl)-6-methyl-[1,2,4]triazolo[4,3-a]pyrimidin-3(2H)-one]	242
Cc1cn2c(=O)n(C)nc2nc1N1CCC(Oc2ccc3c(cnn3C)c2)CC1 [Example 9, 2,6-dimethyl-7-(4-((1-methyl-1H-indazol-5-yl)oxy)piperidin-1-yl)-[1,2,4]triazolo[4,3-a]pyrimidin-3(2H)-one]	112
Cc1cn2c(=O)n(C)nc2nc1N1CC[C@@H](Oc2ccc3c(cnn3C)c2)[C@@H](F)C1 [Example 10, 7-((3S,4R)-3-fluoro-4-((1-methyl-1H-indazol-5-yl)oxy)piperidin-1-yl)-2,6-dimethyl-[1,2,4]triazolo[4,3-a]pyrimidin-3(2H)-one]	81

SMILES	EC50 [nM]
COc1ccc(OC2CCN(c3nc4nn(C)c(=O)n4cc3C)CC2)cn1 [Example 11, 7-(4-((6-methoxypyridin-3-yl)oxy)piperidin-1-yl)-2,6-dimethyl-[1,2,4]triazolo[4,3-a]pyrimidin-3(2H)-one]	87
Cc1cn2c(=O)n(C)nc2nc1N1CCC(OCC2CCCC2)CC1 [Example 12, 7-(4-(cyclopentylmethoxy)piperidin-1-yl)-2,6-dimethyl-[1,2,4]triazolo[4,3-a]pyrimidin-3(2H)-one]	718
Cc1cn2c(=O)n(CCO)nc2nc1N1CCC(Oc2ccc3c(c2)COC3)CC1 [Example 13, 7-(4-((1,3-Dihydro-2-benzofuran-5-yl)oxy)piperidin-1-yl)-2-(2-hydroxyethyl)-6-methyl-[1,2,4]triazolo[4,3-a]pyrimidin-3(2H)-one]	47
COc1ccc(OC2CCN(c3nc4nn(CCO)c(=O)n4cc3C)CC2)cn1 [Example 14, 2-(2-hydroxyethyl)-7-(4-((6-methoxypyridin-3-yl)oxy)piperidin-1-yl)-6-methyl-[1,2,4]triazolo[4,3-a]pyrimidin-3(2H)-one]	69
Cc1cn2c(=O)[nH]nc2nc1N1CCC(Oc2ccccc2)CC1 [Example 15, 6-Methyl-7-(4-phenoxypiperidine-1-yl)-[1.2.4]triazolo[4,3-a]pyrimidin-3(2H)-one]	55
Cc1cn2c(=O)[nH]nc2nc1N1CCC(Oc2cccc(C#N)c2)CC1 [Example 16, 3-((1-(6-methyl-3-oxo-2,3-dihydro-[1,2,4]triazolo[4,3-a]pyrimidin-7-yl)piperidin-4-yl)oxy)benzonitrile]	35
Cc1cn2c(=O)n(C)nc2nc1N1CCC(Oc2cccc(C#N)c2)CC1 [Example 17, 3-((1-(2,6-dimethyl-3-oxo-2,3-dihydro-[1,2,4]triazolo[4,3-a]pyrimidin-7-yl)piperidin-4-yl)oxy)benzonitrile]	36
Cc1cn2c(=O)[nH]nc2nc1N1CCC(Oc2ccc3c(cnn3C)c2)CC1 [Example 18]	338
Cc1cn2c(=O)n(C)nc2nc1N1CCC(Oc2ccccc2)CC1 [Example 19, 2,6-dimethyl-7-(4-phenoxypiperidin-1-yl)-[1,2,4]triazolo[4,3-a]pyrimidin-3(2H)-one]	54
COc1ccc(OC2CCN(c3nc4c(cc3C)COC4=O)CC2)cn1 [Example 20, 2-(4-((6-Methoxypyridin-3-yl)oxy)piperidin-1-yl)-3-methylfuro[3,4-b]pyridin-7(5H)-one]	151
COc1ccc(OC2CCN(c3nc4c(cc3C)C(=O)OC4)CC2)cn1 [Example 21, 2-(4-((6-Methoxypyridin-3-yl)oxy)piperidin-1-yl)-3-methylfuro[3,4-b]pyridin-5(7H)-one]	22
Cc1cc2c(=O)[nH][nH]c2nc1N1CCC(Oc2cccc(C#N)c2)CC1 [Example 22, 3-((1-(5-methyl-3-oxo 2,3-dihydro-1H-pyrazolo[3,4-b]pyridin-6-yl)piperidin-4-yl)oxy)benzonitrile]	57
COc1ccc(OC2CCN(c3nc4[nH][nH]c(=O)c4cc3C)CC2)cn1 [Example 23, 6-(4-((6-methoxypyridin-3-yl)oxy)piperidin-1-yl)-5-methyl-1,2-dihydro-3H-pyrazolo[3,4-b]pyridin-3-one]	68
Cc1cc2c(=O)[nH][nH]c2nc1N1CCC(Oc2ccc3cn[nH]c3c2)CC1 [Example 24, 6-(4-((1H-indazol-6-yl)oxy)piperidin-1-yl)-5-methyl-1,2-dihydro-3H-pyrazolo[3,4-b]pyridin-3-one]	39
COc1ccc(OC2CCN(c3nc4c(cc3C)c(=O)[nH]n4C)CC2)cn1 [Example 25, 6-(4-((6-methoxypyridin-3-yl)oxy)piperidin-1-yl)-1,5-dimethyl-1,2-dihydro-3H-pyrazolo[3,4-b]pyridin-3-one]	249
Cc1cc2c(=O)[nH]n(C)c2nc1N1CCC(Oc2cccc(C#N)c2)CC1 [Example 26, 3-((1-(1,5-dimethyl-3-oxo-2,3-dihydro-1H-pyrazolo[3,4-b]pyridin-6-yl)piperidin-4-yl)oxy)benzonitrile]	208
